Experiments:
Test in all cases: Test D controlled growth environment herbicide test, pre- and postemergence
Assay type in all cases: in vivo
[1] = tested on: Russian thistle (Salsola kali)
How it was run: (§1)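 Pre-emergence: seeds sown in silt loam soil were sprayed with compound in a non-phytotoxic solvent mix containing surfactant. Post-emergence: plants at 2 to 18 cm (1- to 4-leaf stage) in peat moss/vermiculite medium got the same formulation. Visual 0–100 rating versus controls after 14 to 21 d.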

[2] = tested on: barley, spring (spring barley, Hordeum vulgare)
How it was run: as §1

[3] = tested on: bluegrass (annual bluegrass, Poa annua)
How it was run: as §1

[4] = tested on: deadnettle (henbit deadnettle, Lamium amplexicaule)
How it was run: as §1

[5] = tested on: field violet (Viola arvensis)
How it was run: as §1

[6] = tested on: foxtail, green (green foxtail, Setaria viridis)
How it was run: as §1

[7] = tested on: kochia (Kochia scoparia)
How it was run: as §1

[8] = tested on: mustard, wild (wild mustard, Sinapis arvensis)
How it was run: as §1

[9] = tested on: oat, wild (wild oat, Avena fatua)
How it was run: as §1

[10] = tested on: pigweed (Amaranthus retroflexus)
How it was run: as §1

[11] = tested on: wheat, spring (spring wheat, Triticum aestivum)
How it was run: as §1

[12] = tested on: wheat, winter (winter wheat, Triticum aestivum)
How it was run: as §1

[13] = tested on: windgrass (Apera spica-venti)
How it was run: as §1

[14] = Postemergence, 31 g ai/ha, scale 0 to 100 (0 no effect, 100 complete control)
[15] = Postemergence, 125 g ai/ha, visual rating on scale 0 (no effect) to 100 (complete control), 14 to 21 d
[16] = Postemergence, 250 g ai/ha, scale 0 to 100 (0 no effect, 100 complete control)
[17] = Preemergence, 125 g ai/ha, scale 0 to 100 (0 no effect, 100 complete control)
[18] = Preemergence, 250 g ai/ha, scale 0 to 100 (0 no effect, 100 complete control)
[19] = postemergence, 62 g ai/ha, scale 0 to 100, 0 no effect, 100 complete control
[20] = Preemergence, 62 g ai/ha, scale 0 to 100 (0 no effect, 100 complete control)

## CCOC(=O)Oc1c(C)nn(C)c(=O)c1-c1c(C)sc2c(C)cc(C)cc12 [Compound 83]
[1]; [14]
  Russian Thistle plant response rating: 75
[1]; [15]
  Plant response rating, Russian Thistle: 80
[1]; [16]
  Plant response rating, Russian Thistle: 85
[1]; Preemergence, 31 g ai/ha
  Plant response rating (scale of 0 to 100), Russian Thistle: 0
[1]; Preemergence, 62 g ai/ha
  Plant response rating (scale of 0 to 100), Russian Thistle: 0
[1]; [17]
  Plant response rating, Russian Thistle: 15
[1]; [18]
  Plant response rating, Russian Thistle: 0
[1]; [19]
  Plant response rating, Russian Thistle: 80
[2]; [14]
  Barley, Spring plant response rating: 0
[2]; [15]
  Plant response rating, Barley, Spring: 5
[2]; [16]
  Plant response rating, Barley, Spring: 10
[2]; Preemergence, 31 g ai/ha
  Plant response rating (scale of 0 to 100), Barley, Spring: 0
[2]; [20]
  Plant response rating, Barley, Spring: 0
[2]; [17]
  Plant response rating, Barley, Spring: 0
[2]; [18]
  Plant response rating, Barley, Spring: 5
[2]; [19]
  Plant response rating, Barley, Spring: 5
[3]; [14]
  Bluegrass plant response rating: 0
[3]; [15]
  Plant response rating, Bluegrass: 15
[3]; [16]
  Plant response rating, Bluegrass: 25
[3]; Preemergence, 31 g ai/ha
  Plant response rating (scale of 0 to 100), Bluegrass: 15
[3]; [20]
  Plant response rating, Bluegrass: 15
[3]; [17]
  Plant response rating, Bluegrass: 35
[3]; [18]
  Plant response rating, Bluegrass: 35
[3]; [19]
  Plant response rating, Bluegrass: 10
[4]; [14]
  Deadnettle plant response rating: 15
[4]; [15]
  Plant response rating, Deadnettle: 55
[4]; [16]
  Plant response rating, Deadnettle: 60
[4]; Preemergence, 31 g ai/ha
  Plant response rating (scale of 0 to 100), Deadnettle: 0
[4]; Preemergence, 62 g ai/ha
  Plant response rating (scale of 0 to 100), Deadnettle: 0
[4]; [17]
  Plant response rating, Deadnettle: 15
[4]; [18]
  Plant response rating, Deadnettle: 100
[4]; [19]
  Plant response rating, Deadnettle: 25
[5]; [14]
  Field Violet plant response rating: 90
[5]; [15]
  Plant response rating, Field Violet: 100
[5]; [16]
  Plant response rating, Field Violet: 100
[5]; Preemergence, 31 g ai/ha
  Plant response rating (scale of 0 to 100), Field Violet: 75
[5]; Preemergence, 62 g ai/ha
  Plant response rating (scale of 0 to 100), Field Violet: 80
[5]; [17]
  Plant response rating, Field Violet: 95
[5]; [18]
  Plant response rating, Field Violet: 100
[5]; [19]
  Plant response rating, Field Violet: 80
[6]; [14]
  Foxtail, Green plant response rating: 75
[6]; [15]
  Plant response rating, Foxtail, Green: 90
[6]; [16]
  Plant response rating, Foxtail, Green: 100
[6]; Preemergence, 31 g ai/ha
  Plant response rating (scale of 0 to 100), Foxtail, Green: 15
[6]; Preemergence, 62 g ai/ha
  Plant response rating (scale of 0 to 100), Foxtail, Green: 50
[6]; [17]
  Plant response rating, Foxtail, Green: 100
[6]; [18]
  Plant response rating, Foxtail, Green: 100
[6]; [19]
  Plant response rating, Foxtail, Green: 90
[7]; [14]
  Kochia plant response rating: 70
[7]; [15]
  Plant response rating, Kochia: 80
[7]; [16]
  Plant response rating, Kochia: 90
[7]; Preemergence, 31 g ai/ha
  Plant response rating (scale of 0 to 100), Kochia: 0
[7]; Preemergence, 62 g ai/ha
  Plant response rating (scale of 0 to 100), Kochia: 0
[7]; [17]
  Plant response rating, Kochia: 30
[7]; [18]
  Plant response rating, Kochia: 50
[7]; [19]
  Plant response rating, Kochia: 75
[8]; [14]
  Mustard, Wild plant response rating: 25
[8]; [15]
  Plant response rating, Mustard, Wild: 65
[8]; [16]
  Plant response rating, Mustard, Wild: 70
[8]; Preemergence, 31 g ai/ha
  Plant response rating (scale of 0 to 100), Mustard, Wild: 0
[8]; Preemergence, 62 g ai/ha
  Plant response rating (scale of 0 to 100), Mustard, Wild: 0
[8]; [17]
  Plant response rating, Mustard, Wild: 35
[8]; [18]
  Plant response rating, Mustard, Wild: 25
[8]; [19]
  Plant response rating, Mustard, Wild: 25
[9]; [14]
  Oat, Wild plant response rating: 80
[9]; [15]
  Plant response rating, Oat, Wild: 90
[9]; [16]
  Plant response rating, Oat, Wild: 95
[9]; Preemergence, 31 g ai/ha
  Plant response rating (scale of 0 to 100), Oat, Wild: 80
[9]; Preemergence, 62 g ai/ha
  Plant response rating (scale of 0 to 100), Oat, Wild: 85
[9]; [17]
  Plant response rating, Oat, Wild: 90
[9]; [18]
  Plant response rating, Oat, Wild: 90
[9]; [19]
  Plant response rating, Oat, Wild: 85
[10]; [14]
  Pigweed plant response rating: 100
[10]; [15]
  Plant response rating, Pigweed: 100
[10]; [16]
  Plant response rating, Pigweed: 100
[10]; Preemergence, 31 g ai/ha
  Plant response rating (scale of 0 to 100), Pigweed: 100
[10]; Preemergence, 62 g ai/ha
  Plant response rating (scale of 0 to 100), Pigweed: 100
[10]; [17]
  Plant response rating, Pigweed: 100
[10]; [18]
  Plant response rating, Pigweed: 100
[10]; [19]
  Plant response rating, Pigweed: 100
[11]; [14]
  Wheat, Spring plant response rating: 0
[11]; [15]
  Plant response rating, Wheat, Spring: 5
[11]; [16]
  Plant response rating, Wheat, Spring: 20
[11]; Preemergence, 31 g ai/ha
  Plant response rating (scale of 0 to 100), Wheat, Spring: 0
[11]; Preemergence, 62 g ai/ha
  Plant response rating (scale of 0 to 100), Wheat, Spring: 0
[11]; [17]
  Plant response rating, Wheat, Spring: 10
[11]; [18]
  Plant response rating, Wheat, Spring: 35
[11]; [19]
  Plant response rating, Wheat, Spring: 0
[12]; [14]
  Wheat, Winter plant response rating: 0
[12]; [15]
  Plant response rating, Wheat, Winter: 5
[12]; [16]
  Plant response rating, Wheat, Winter: 10
[12]; Preemergence, 31 g ai/ha
  Plant response rating (scale of 0 to 100), Wheat, Winter: 0
[12]; Preemergence, 62 g ai/ha
  Plant response rating (scale of 0 to 100), Wheat, Winter: 0
[12]; [17]
  Plant response rating, Wheat, Winter: 5
[12]; [18]
  Plant response rating, Wheat, Winter: 25
[12]; [19]
  Plant response rating, Wheat, Winter: 0
[13]; [14]
  Windgrass plant response rating: 75
[13]; [15]
  Plant response rating, Windgrass: 90
[13]; [16]
  Plant response rating, Windgrass: 95
[13]; Preemergence, 31 g ai/ha
  Plant response rating (scale of 0 to 100), Windgrass: 15
[13]; Preemergence, 62 g ai/ha
  Plant response rating (scale of 0 to 100), Windgrass: 75
[13]; [17]
  Plant response rating, Windgrass: 90
[13]; [18]
  Plant response rating, Windgrass: 95
[13]; [19]
  Plant response rating, Windgrass: 85

Reference: patent US10597388B2, “Pyridazinone herbicides” (FMC CORPORATION, priority 2014, dated 2020)
